We go through 4 compounds from publication PMC9561414 (2022).

Molecules are shown by their SMILES.

Assay in all cases: RelE cleavage translation initiation assay (PAGE)
Test [1] has as its system Vvu add (WT) (RNA, riboswitch) GCUUCAUAUAAUCCUAAUGAUAUGGUUUGGGAGUUUCUACCAAGAGCCUUAAACUCUUGAUUAUGAAGUCUGUCGCUUUAUCCGAAAUUUUAUAAAGAGAAGACUCAUGUAGAAUUACUUUGACCUGCCG
The following applies: 30 mM K+ (KCl), 7 mM Mg2+, 70 mM NH4Cl; 50 mM HEPES-KOH pH 7.5, 37 °C, 70S ribosomes, IFs; apparent.

Test [2] relates to Vvu add U61C (RNA, riboswitch) GCUUCAUAUAAUCCUAAUGAUAUGGUUUGGGAGUUUCUACCAAGAGCCUUAAACUCUUGACUAUGAAGUCUGUCGCUUUAUCCGAAAUUUUAUAAAGAGAAGACUCAUGUAGAAUUACUUUGACCUGCCG
The following applies: 30 mM K+ (KCl), 7 mM Mg2+, 70 mM NH4Cl, 50 mM HEPES-KOH pH 7.5, 37 °C, 70S ribosomes, IFs.

Test [3] deals with Pae Gdm WT (RNA, riboswitch) GGUUUCAGCCGGAAGCGGGACGACCCGUUUUCCCUCUUUCAUUGCGCGGGGACGACCCUGCAGAGAGGCUGAAAAUGUAGUGGAUCUAUCUCUUGCUCGUA
The note with it: 30 mM K+ (KCl), 7 mM Mg2+, 70 mM NH4Cl, 50 mM HEPES-KOH pH 7.5, 37 °C, 70S ribosomes, IFs.

Test [4] concerns Pae Gdm OFF (RNA, riboswitch) GGUUUCAGCCGGAAGCGGGAAAACCCGUUUUCCCUCUUUCAUUGCGCGGGGACGACCCUGCAGAGAGGCUGAAAAUGUAGUGGAUCUAUCUCUUGCUCGUA
The note with it: 30 mM K+ (KCl), 7 mM Mg2+, 70 mM NH4Cl; 50 mM HEPES-KOH pH 7.5, 37 °C, 70S ribosomes, IFs; no response up to 25 mM guanidine.

In the case of `Nc1ncnc2[nH]cnc12`, in test [1], the K1/2 was 1.4 ± 0.7 µM. The binding result in test [2] (no response up to 500 μM adenine) is “no”.

As for `N=C(N)N`, in test [3] (apparent, Hill 1.5 ± 0.2), the K1/2 was 2.2 ± 0.2 mM. For the same compound, the binding result in test [4] is recorded as “no”.

Consider `Nc1nc2[nH]cnc2c(=O)[nH]1`, for which the K1/2 in test [2] (apparent) is given as 87 ± 3 nM.

Consider `NC(N)=O`, for which the binding entry in test [3] (no modulation at 50 mM urea) is reported as “no”.
